In brackets after ≈: the same amount, converted by molar mass.
Key:
Test in all cases: antibacterial activity (MIC), standard in vitro dilution test
[1] = tested on: MRSA 31 high-resist. (IPM resist.); type: cell-based, Staphylococcus aureus; details: test bacterium strain 10^5 cfu/ml; for MIC: Staphylococcus aureus, MRSA, read-out: MIC, MRSA 31 high-resist. (IPM resist.)
Text: (§1) With respect to certain compounds (I) of the present invention, their general antibacterial activities and their antibacterial activities (MIC) against various methicillin-resistant strains of Staphylococcus aureus (methicillin-resistant Staphylococcus aureus: MRSA) were investigated. The results will be shown next.
(§2) Of the investigations, the general antibacterial activities were investigated by a standard in vitro dilution test.
(§3) As test bacteria, Staphylococcus aureus 209P JC-1, Escherichia coli NIHJ JC-2 and MRSAs were used.

[2] = tested on: MRSA 33 high-resist. (IPM resist.); type: cell-based, Staphylococcus aureus; details: test bacterium strain 10^5 cfu/ml; for MIC: Staphylococcus aureus, MRSA, read-out: MIC, MRSA 33 high-resist. (IPM resist.)
Text: as §1, §2, §3

[3] = tested on: Escherichia coli NIHJ JC-2 strain; type: cell-based; details: for MIC: Escherichia coli, NIHJJC2, test bacterium strain 10^5 cfu/ml, read-out: MIC, Escherichia coli NIHJ JC-2 strain; for MIC, Escherichia coli NIHJ JC-2 strain: test bacterium strain 10^5 cfu/ml
Text: as §1, §2, §3

[4] = tested on: Staphylococcus aureus 209P JC-1 strain; type: cell-based; details: test bacterium strain 10^5 cfu/ml; for MIC: Staphylococcus aureus, 209P, read-out: MIC, Staphylococcus aureus 209P JC-1 strain
Text: as §1, §2, §3

Row | SMILES | MIC [1] [µg/mL] | MIC [2] [µg/mL] | MIC [3] [µg/mL] | MIC [4] [µg/mL] | MIC, MRSA 31 high-resist. (IPM resist.) [1] [µg/mL] | MIC, MRSA 33 high-resist. (IPM resist.) [2] [µg/mL] | MIC, Escherichia coli NIHJ JC-2 strain [3] [µg/mL] | MIC, Staphylococcus aureus 209P JC-1 strain [4] [µg/mL]
1 | CC[C@H](O)[C@@H]1C(=O)N2C(C(=O)O)=C(SC3CCN(C4CC4)C3)S[C@H]12 (stereo partly shown) [Ex. 235] | 6.25 (≈ 16.9 µM) | 6.25 (≈ 16.9 µM) | 0.78 (≈ 2.11 µM) | 0.1 (≈ 0.27 µM) | – | – | – | –
2 | C=CCN1CCC(SC2=C(C(=O)O)N3C(=O)[C@@H]([C@@H](O)CC)[C@H]3S2)C1 (stereo partly drawn) [Ex. 17, (5R,6R)-2-(1-allyl-3-pyrrolidine)-thio-6-((S)-1-hydroxypropyl)penem-3-carboxylic acid] | – | – | – | – | 3.13 (≈ 8.45 µM) | 3.13 (≈ 8.45 µM) | 0.39 (≈ 1.05 µM) | 0.10 (≈ 0.27 µM)
3 | CC[C@H](O)[C@@H]1C(=O)N2C(C(=O)O)=C(SCCNC(C)=N)S[C@H]12 [Ex. 131, (5R,6R)-2-(2-(1-iminoethylamino)-ethyl)thio-6-((S)-1-hydroxypropyl)penem-3-carboxylic acid] | 6.25 (≈ 18.1 µM) | 6.25 (≈ 18.1 µM) | 0.78 (≈ 2.26 µM) | 0.1 (≈ 0.289 µM) | – | – | – | –
4 | CC[C@H](O)[C@@H]1C(=O)N2C(C(=O)O)=C(S[C@H]3CCN(CCC(=O)c4ccccc4)C3)S[C@H]12 [Ex. 116, (5R,6R)-2-((S)-1-(2-benzoylethyl)-pyrrolidin-3-yl)thio-6-((S).-1-hydroxypropyl)-penem-3-carboxylic acid] | 3.13 (≈ 6.77 µM) | 3.13 (≈ 6.77 µM) | 0.2 (≈ 0.432 µM) | 0.05 (≈ 0.108 µM) | – | – | – | –
5 | CC[C@H](O)[C@@H]1C(=O)N2C(C(=O)O)=C(SC3CCN(c4ccccc4)C3)S[C@H]12 (stereo partly drawn) [Ex. 105, (5R,6R)-6-((S)-1-hydroxypropyl)-2-(1-phenylpyrrolidin-3-yl)thiopenem-3-carboxylic acid] | 1.56 (≈ 3.84 µM) | 1.56 (≈ 3.84 µM) | > 12.5 | 0.1 (≈ 0.246 µM) | – | – | – | –
6 | CC[C@H](O)[C@@H]1C(=O)N2C(C(=O)O)=C(S[C@H]3CCN(CC4CC4)C3)S[C@H]12 [Ex. 230] | 6.25 (≈ 16.3 µM) | 6.25 (≈ 16.3 µM) | 0.78 (≈ 2.03 µM) | 0.2 (≈ 0.52 µM) | – | – | – | –
7 | CC[C@H](O)[C@@H]1C(=O)N2C(C(=O)O)=C(S[C@H]3CCN(CC(=O)c4ccc(C)cc4)C3)S[C@H]12 [Ex. 113, (5R,6R)-6-((S)-1-hydroxypropyl)-2-((S)-1-(2-oxo-2-p-tolylethyl)pyrrolidin-3-yl)-thiopenem-3-carboxylic acid] | 6.25 (≈ 13.5 µM) | 6.25 (≈ 13.5 µM) | 0.39 (≈ 0.843 µM) | 0.1 (≈ 0.216 µM) | – | – | – | –
8 | CC[C@H](O)[C@@H]1C(=O)N2C(C(=O)O)=C(S[C@H]3CCN(C(C)=N)C3)S[C@H]12 [Ex. 103, (5R,6R)-2-((S)-1-(1-iminoethyl)-pyrrolidin-3-yl)thio-6-((S)-1-hydroxypropyl)-penem-3-carboxylic acid] | 3.13 (≈ 8.43 µM) | 3.13 (≈ 8.43 µM) | 0.39 (≈ 1.05 µM) | 0.1 (≈ 0.269 µM) | – | – | – | –
9 | CCC(=N)N1CC[C@H](SC2=C(C(=O)O)N3C(=O)[C@@H]([C@@H](O)CC)[C@H]3S2)C1 [Ex. 250] | 6.25 (≈ 16.2 µM) | 6.25 (≈ 16.2 µM) | 1.56 (≈ 4.05 µM) | 0.2 (≈ 0.519 µM) | – | – | – | –
10 | CC[C@H](O)[C@@H]1C(=O)N2C(C(=O)O)=C(SC3CCN(C4CCCC4)C3)S[C@H]12 (stereo partly shown) [Ex. 227] | 6.25 (≈ 15.7 µM) | 6.25 (≈ 15.7 µM) | 0.78 (≈ 1.96 µM) | 0.1 (≈ 0.251 µM) | – | – | – | –
11 | CC[C@H](O)[C@@H]1C(=O)N2C(C(=O)O)=C(S[C@H]3CCN(CC(=O)c4ccc(F)cc4)C3)S[C@H]12 [Ex. 112, (5R,6R)-2-((S)-1-(2-p-fluorophenyl-2-oxoethyl)pyrrolidin-3-yl)thio-6-((S)-1-hydroxypropyl)penem-3-carboxylic acid] | 6.25 (≈ 13.4 µM) | 6.25 (≈ 13.4 µM) | 0.78 (≈ 1.67 µM) | 0.1 (≈ 0.214 µM) | – | – | – | –
12 | CC[C@H](O)[C@@H]1C(=O)N2C(C(=O)O)=C(SC3CCc4cccnc43)S[C@H]12 (stereo partly shown) [Ex. 231] | – | – | – | 0.1 (≈ 0.264 µM) | 1.56 (≈ 4.12 µM) | 1.56 (≈ 4.12 µM) | 3.13 (≈ 8.27 µM) | –
13 | CC[C@H](O)[C@@H]1C(=O)N2C(C(=O)O)=C(SCCN3CCCC3)S[C@H]12 [Ex. 143, (5R,6R)-6-((S)-1-hydroxypropyl)-2-(2-(pyrrolidin-1-yl)ethyl)thiopenem-3-carboxylic acid] | 6.25 (≈ 17.4 µM) | 6.25 (≈ 17.4 µM) | 3.13 (≈ 8.73 µM) | 0.39 (≈ 1.09 µM) | – | – | – | –
14 | CC[C@H](O)[C@@H]1C(=O)N2C(C(=O)O)=C(SC3Cc4ccccc4C3)S[C@H]12 [Ex. 225] | 1.56 (≈ 4.13 µM) | 1.56 (≈ 4.13 µM) | 12.5 (≈ 33.1 µM) | 0.05 (≈ 0.132 µM) | – | – | – | –
15 | CC[C@H](O)[C@@H]1C(=O)N2C(C(=O)O)=C(SC3CN(C=N)C3)S[C@H]12 [Ex. 254] | 6.25 (≈ 18.2 µM) | 6.25 (≈ 18.2 µM) | 0.78 (≈ 2.27 µM) | 0.1 (≈ 0.291 µM) | – | – | – | –
16 | CC[C@H](O)[C@@H]1C(=O)N2C(C(=O)O)=C(SCCN)S[C@H]12 [Ex. 140, (5R,6R)-2-(2-aminoethyl)thio-6-((S)-1-hydroxypropyl)penem-3-carboxylic acid] | 6.25 (≈ 20.5 µM) | 6.25 (≈ 20.5 µM) | 0.73 (≈ 2.4 µM) | 0.1 (≈ 0.329 µM) | – | – | – | –

Reference: US20050004092A1, “Penem derivatives and antimicrobial agent containing the same” (DAIICHI SUNTORY PHARMA CO., LTD., priority 1995, published 2005)
